Article PMC4288171, “Meclofenamic acid selectively inhibits FTO demethylation of m^6A over ALKBH5” (Nucleic Acids Research, 2014)

Molecular target: T1, FTO (Homo sapiens, UniProt Q9C0B1)
T1 construct: FTOΔN31 (His-tag human FTO with N-terminal 31 residues truncated)
Assay: crystal structure at […] Å; DSF shift; FP displacement (IC50 […]); IC50 from HPLC demethylation assay on ssDNA
Assay type: biochemical

T1 sequence (Q9C0B1 32-505): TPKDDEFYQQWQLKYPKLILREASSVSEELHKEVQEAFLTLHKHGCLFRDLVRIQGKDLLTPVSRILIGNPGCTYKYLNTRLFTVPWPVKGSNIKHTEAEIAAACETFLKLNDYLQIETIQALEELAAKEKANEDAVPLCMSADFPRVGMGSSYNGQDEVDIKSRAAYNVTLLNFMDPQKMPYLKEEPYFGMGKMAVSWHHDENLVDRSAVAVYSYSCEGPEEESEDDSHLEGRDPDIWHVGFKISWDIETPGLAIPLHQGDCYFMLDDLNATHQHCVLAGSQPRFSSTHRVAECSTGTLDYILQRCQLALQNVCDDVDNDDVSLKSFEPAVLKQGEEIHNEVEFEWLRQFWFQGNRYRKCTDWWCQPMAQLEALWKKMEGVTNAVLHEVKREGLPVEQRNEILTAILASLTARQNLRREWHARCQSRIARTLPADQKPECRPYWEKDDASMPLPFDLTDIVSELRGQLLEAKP

`Cc1ccc(Cl)c(Nc2ccccc2C(=O)O)c1Cl` [MA, meclofenamic acid] showed an IC50 of 7 µM.
